Reference: patent US20070043010A1, “Quinazoline derivatives” (ASTRAZENECA UK LIMITED, priority 2003, published 2007)

Tested on: KB cells
Test: EGFR driven KB cell proliferation assay, Test (b)
Format: cell-based
Settings: Homo sapiens, 96 h, EGF 1 ng/ml, 4 days, MTT
Description: This assay measures the ability of a test compound to inhibit the proliferation of KB cells (human naso-pharangeal carcinoma obtained from the American Type Culture Collection (ATCC).
KB cells (human naso-pharangeal carcinoma obtained from the ATCC were cultured in Dulbecco's modified Eagle's medium (DMEM) containing 10% foetal calf serum, 2 mM glutamine and non-essential amino acids at 37° C. in a 7.5% CO2 air incubator. Cells were harvested from the stock flasks using Trypsin/ethylaminediaminetetraacetic acid (EDTA). Cell density was measured using a haemocytometer and viability was calculated using trypan blue solution before being seeded at a density of 1.25×10^3 cells per well of a 96 well plate in DMEM containing 2.5% charcoal stripped serum, 1 mM glutamine and non-essential amino acids at 37° C. in 7.5% CO2 and allowed to settle for 4 hours.
Following adhesion to the plate, the cells are treated with or without EGF (final concentration of 1 ng/ml) and with or without compound at a range of concentrations in dimethylsulfoxide (DMSO) (0.1% fial) before incubation for 4 days. Following the incubation period, cell numbers were determined by addition of 50 μl of 3-(4,5-Dimethylthiazol-2-yl)-2,5-diphenyltetrazolium bromide (MTT) (stock 5 mg/ml) for 2 hours. MTT solution was then tipped off, the plate gently tapped dry and the cells dissolved upon the addition of 100 μl of DMSO.
Absorbance of the solubilised cells was read at 540 nm using a Molecular Devices ThermoMax microplate reader. Inhibition of proliferation was expressed as an IC50 value. This was determined by calculation of the concentration of compound that was required to give 50% inhibition of proliferation. The range of proliferation was calculated from the positive (vehicle plus EGF) and negative (vehicle minus EGF) control values.

IC50	SMILES
144 nM	COc1cc2ncnc(Nc3cccc(Cl)c3F)c2cc1O[C@H]1C[C@H](C(=O)NCCNC(C)=O)N(C)C1 [Compound 11-13, (4S)—N-[2-(acetylamino)ethyl]-4-({4-[(3-chloro-2-fluorophenyl)amino]-7-methoxyquinazolin-6-yl}oxy)-1-methyl-D-prolinamide]
139 nM	COc1cc2ncnc(Nc3cccc(Cl)c3F)c2cc1O[C@H]1C[C@H](C(=O)N[C@H]2COC[C@@H]2O)N(C)C1 [Compound 11-14, (4S)-4-({4-[(3-chloro-2-fluorophenyl)amino]-7-methoxyquinazolin-6-yl}oxy)-N-[(3S,4R)-4-hydroxytetrahydrofuran-3-yl]-1-methyl-D-prolinamide]
63 nM	COc1cc2ncnc(Nc3cccc(Cl)c3F)c2cc1O[C@@H]1C[C@@H](C(=O)NCCC#N)N(C)C1 [Compound 13-3]
